Assay results as given in US11311613B2, “Development of agonist epitopes of the human papillomavirus” (priority 2016, dated 2022).
“Also recorded” adds a separate entry of the source. Like-named read-outs stand apart in the source and are kept apart here.

Experiments:
[1] = tested on: CTL (T cells); assay: IFN-γ production by CTL stimulated by autologous B cells pulsed with corresponding peptide; format: cell-based, human; design: key to IFN-γ: + denotes a greater level than the native epitope; = denotes the same level as the native epitope; − denotes a lower level than the native epitope; settings: for interferon production (in words): T cells stimulated by peptide-pulsed autologous B cells
Excerpt: Autologous B cells were pulsed with each native and agonist E6 peptides to stimulate production of interferon by T cells.
Autologous B cells were pulsed with each native and agonist E7 peptides to stimulate production of interferon by T cells.

[2] = tested on: HN-12 head and neck squamous carcinoma cell line (HLA-A2 positive); assay: Lysis of HN-12 cells by peptide-specific CTLs; format: cell-based, human; settings: for % specific lysis (SD), HN-12: CTLs at IVS5, effector-to-target ratio 25:1; for lysis of HN-12 (in words): compared to native counterparts
Excerpt: (§1) HPV-specific T cells were generated using infection of dendritic cells (DCs) with Ad-HPV followed by stimulation of the T cells with each agonist and native peptide. In particular, DCs were infected with Ad5 HPV at 20,000 MOI. Infected DCs were used to generate specific CTLs using autologous PBMC. Autologous DCs were used as APCs for three in vitro stimulations (IVS). Autologous peptide-pulsed B cells were used to re-stimulate antigen-specific CTLs for two additional IVS. CTLs were used at IVS5.
(§2) Results are expressed in % specific lysis (SD). Effector-to-target ratio used was 25:1. CTLs were established from a normal HLA-A2 donor. HN-4 and HN-12 cells are head and neck squamous carcinoma cell lines (HLA-A2 positive). ASPC-1 is a pancreatic cancer cell line (HPV16 E6 and E7 negative HLA-A2 negative).

[3] = tested on: ASPC-1 pancreatic cancer cell line (HPV16 E6 and E7 negative HLA-A2 negative); assay: Lysis of ASPC-1 control cells by peptide-specific CTLs; format: cell-based, human; settings: CTLs at IVS5, effector-to-target ratio 25:1; for % specific lysis (SD), ASPC-1 (HLA-A2neg HPV E6neg and E7neg): Table 4; for % specific lysis (SD), ASPC-1: Table 5
Excerpt: as §1
as §2, with “CaSki is a cervical” for “HN-4 and HN-12 cells are head and neck squamous”, “line (HPV16 E6 and E7 positive HLA-A2” for “lines (HLA-A2”
as §2

[4] = target: T1, HLA-A2 molecules (Homo sapiens, UniProt P04439, D140Y/D185E/D98H/E176V/E277Q/G131W/G231S/I119V/I121R/I166T/I218V/L300P/L318F/N151K/N90K/P208A/P217A/Q86G/Q94H/R138H/R169H/T345S); assay: T2A2 binding of HPV-16 E6/E7 peptides to HLA-A2; design: T2A2 Binding: unit not given here
T1 construct: endogenous in cells; host or cells: T2A2 cells (T2 cell line expressing HLA-A2; only the column head names it)

[5] = tested on: CaSki cervical carcinoma cell line (HPV16 E6 and E7 positive HLA-A2 positive); assay: Lysis of CaSki tumor cells by peptide-specific CTLs; format: cell-based, human; design: key to Lysis: + denotes a greater level than the native epitope; = denotes the same level as the native epitope; − denotes a lower level than the native epitope; settings: for % specific lysis (SD), CaSki (HLA-A2+ HPV E6+ and E7+): CTLs at IVS5, effector-to-target ratio 25:1; for lysis of CaSki cervical carcinoma cells (in words): compared to T cells generated with the native epitope counterpart; for Lysis: level compared with the native epitope
Excerpt: as §1
as §2, with “CaSki is a cervical” for “HN-4 and HN-12 cells are head and neck squamous”, “line (HPV16 E6 and E7 positive HLA-A2” for “lines (HLA-A2”

[6] = tested on: HPV-specific T cell lines; assay: IFN-γ production by HPV-specific T cell lines stimulated with Ad5-infected human dendritic cells; format: cell-based; settings: for activation of T cells directed against the epitope (in words): human DCs infected with Ad-5[E1,E2b^neg]HPV
Method: Human DC (6 day culture in IL-4 and GM-CSF) were infected with Ad5 [E1,E2b]-HPV vector and Ad5 [E1,E2b]-Null at 1×10^5/well (24-well plate) in 0.5 ml of AIM-V. Ad5 vectors were used at 20,000 MOI for 1 hour and then 1.5 ml of AIM-V were added to each well. Infected DCs were incubated for 48 hours and then washed and used for stimulation of human antigen-specific T cells. Results are expressed in pg of IFN-γ per 5×10^5 T cells/ml. DC only=<0.73 pg/ml.

[7] = tested on: HN-4 head and neck squamous carcinoma cell line (HLA-A2 positive); assay: Lysis of HN-4 cells by peptide-specific CTLs; format: cell-based, human; settings: for % specific lysis (SD), HN-4: CTLs at IVS5, effector-to-target ratio 25:1; for lysis of HN-4 (in words): compared to native counterparts
Excerpt: as §1, §2

[8] = CTL line stimulated by autologous B cells pulsed with corresponding HPV-16 E6 peptide
[9] = E6 CTL line, autologous B cells with NO peptide
[10] = level compared with the native epitope
[11] = DCs infected with Ad5 [E1,E2b]-HPV (20,000 MOI)
[12] = DCs infected with Ad5 [E1,E2b]-Null (20,000 MOI)
[13] = CTL line stimulated by autologous B cells pulsed with corresponding HPV-16 E7 peptide
[14] = E7 CTL line, autologous B cells with NO peptide

Row | Sequence | IFN-γ [1, 8] [pg/mL] | IFN-γ [1, 9] [pg/mL] | % specific lysis (SD), HN-12 [2] | % specific lysis (SD), ASPC-1 (HLA-A2neg HPV E6neg and E7neg) [3] | % specific lysis (SD), ASPC-1 [3] | T2A2 Binding ([4]; binding to HLA-A2) | % specific lysis (SD), CaSki (HLA-A2+ HPV E6+ and E7+) [5] | Lysis [5] | IFN-γ [6, 11] | IFN-γ [6, 12] | IFN-γ ([6]; DCs only (uninfected)) | IFN-γ ([6]; No DCs) | % specific lysis (SD), HN-4 [7] | interferon production (in words) [1] | IFN-γ [1, 13] [pg/mL] | IFN-γ [1, 14] [pg/mL] | other results
1 | QLYNKPLCDV [E6-A3] | 653 | <15.6 | 38.4 (7.5) % | 0.3 (0.9) % | 0.5 (0.8) % | 1,280 | 49.1 (11.9) % | + | 452 pg of IFN-γ per 5×10^5 T cells/ml | 0.78 pg of IFN-γ per 5×10^5 T cells/ml | 8.06 pg of IFN-γ per 5×10^5 T cells/ml | 0.9 pg of IFN-γ per 5×10^5 T cells/ml | 30.6 (5.3) % |  |  |  | lysis of HN-12 (in words) [2]: more lysis; A2 Binding [4, 10]: +; lysis of CaSki cervical carcinoma cells (in words) [5]: Enhanced lysis; activation of T cells directed against the epitope (in words) [6]: able to activate; lysis of HN-4 (in words) [7]: more lysis
2 | KISEYRHYV [E6-A2] | 172 | <15.6 |  | 0.2 (0.5) % |  | 877 | 24.2 (1.2) % | − |  |  |  |  |  | produced more interferon than the agonist counterpart |  |  | IFN-γ [1, 10]: −
3 | TLHEYMLDV [E7-A2] |  |  |  | 0.6 (1.3) % |  | 1,529 | 41.9 (4.1) % | − |  |  |  |  |  | low and produced more interferon than the agonist counterpart | 95.3 | <15.6 | IFN-γ [1, 10]: −; HLA-A2 binding (in words) [4]: strongest; also recorded: good binding
4 | KLPQLCTEV [E6-A1] | 699 | <15.6 | 49.4 (3.1) % | -0.2 (6.6) % | 0.2 (0.9) % | 1,335 | 70.8 (10.7) % |  | 683 pg of IFN-γ per 5×10^5 T cells/ml | 1.0 pg of IFN-γ per 5×10^5 T cells/ml | <0.73 pg of IFN-γ per 5×10^5 T cells/ml | 0.89 pg of IFN-γ per 5×10^5 T cells/ml | 46.2 (1.1) % | best interferon production |  |  | lysis of HN-12 (in words) [2]: more lysis; HLA-A2 binding (in words) [4]: strongest; lysis of CaSki cervical carcinoma cells (in words) [5]: Enhanced lysis; activation of T cells directed against the epitope (in words) [6]: able to activate; lysis of HN-4 (in words) [7]: more lysis
5 | KISEYRHYC [E6-2, reference compound] | 455 | <15.6 |  | 0.5 (0.7) % |  |  | 45.1 (2.8) % |  |  |  |  |  |  |  |  |  | 
6 | YMLDLQPET [E7-1, reference compound] |  |  |  | 0.4 (0.3) % |  | 1,105 | 39.8 (1.7) % |  |  |  |  |  |  |  | 247 | 155.6 | 
7 | TLHEYMLDL [E7-2, reference compound] |  |  |  | 0.1 (1.0) % |  |  | 59.2 (5.3) % |  |  |  |  |  |  |  | 475 | 95.6 | 
8 | RTLEDLLMGV [E7-A3] |  |  | 41.9 (2.9) % | 0.6 (0.1) % | 0.6 (0.7) % | 1,263 | 54.5 (7.3) % | + | 931 pg of IFN-γ per 5×10^5 T cells/ml | <0.73 pg of IFN-γ per 5×10^5 T cells/ml | <0.73 pg of IFN-γ per 5×10^5 T cells/ml | <0.73 pg of IFN-γ per 5×10^5 T cells/ml | 40.2 (1.8) % | best interferon production | 840 | <15.6 | lysis of HN-12 (in words) [2]: more lysis; HLA-A2 binding (in words) [4]: strongest; lysis of CaSki cervical carcinoma cells (in words) [5]: Enhanced lysis; activation of T cells directed against the epitope (in words) [6]: able to activate; lysis of HN-4 (in words) [7]: more lysis
9 | QQYNKPLCDL [E6-3, reference compound] | 338 | 121 | 10.2 (3.8) % | 0.6 (0.2) % | -1.1 (0.7) % | 1,020 | 38.1 (3.3) % |  | 135 pg of IFN-γ per 5×10^5 T cells/ml | 58.5 pg of IFN-γ per 5×10^5 T cells/ml | <0.73 pg of IFN-γ per 5×10^5 T cells/ml | <0.73 pg of IFN-γ per 5×10^5 T cells/ml | 7.0 (0.4) % |  |  |  | 
10 | YMLDLQPEV [E7-A1] |  |  |  | 0.9 (0.6) % |  | 1,171 | 27.8 (3.6) % | − |  |  |  |  |  |  | 230 | <15.6 | IFN-γ [1, 10]: =
11 | KLPQLCTEL [E6-1, reference compound] | 264 | <15.6 | 16.5 (1.7) % | 2.4 (0.6) % | 0.3 (0.9) % |  | 34.1 (3.6) % |  | 114 pg of IFN-γ per 5×10^5 T cells/ml | <0.73 pg of IFN-γ per 5×10^5 T cells/ml | 2.17 pg of IFN-γ per 5×10^5 T cells/ml | <0.73 pg of IFN-γ per 5×10^5 T cells/ml | 21.2 (4.4) % |  |  |  | T2A2 Binding [4]: 853
12 | RTLEDLLMGT [E7-3, reference compound] |  |  | 34.6 (3.9) % | 0.5 (0.1) % | 1.1 (0.7) % |  | 49.6 (8.7) % |  | 560 pg of IFN-γ per 5×10^5 T cells/ml | 70.8 pg of IFN-γ per 5×10^5 T cells/ml | 4.24 pg of IFN-γ per 5×10^5 T cells/ml | <0.73 pg of IFN-γ per 5×10^5 T cells/ml | 25.8 (3.5) % |  | 338 | <15.6 | 
